Key:
Homo sapiens [1] = organism: Homo sapiens; test: (§1) Selectivity index, ratio of inhibition of full length human MKK7 (M1 to R419 residues) expressed in mammalian expression system assessed as residual percent of control binding at 100 nM relative to control to inhibition of partial length human MKK4 (S84 to D399 residues) expressed in mammalian expression system assessed as residual percent of control binding at 100 nM relative to control
Homo sapiens [2] = organism: Homo sapiens; test: Selectivity index, ratio of inhibition of B-raf (unknown origin) to inhibition of partial length human MKK4 (S84 to D399 residues) expressed in mammalian expression system assessed as residual percent of control binding at 100 nM relative to control
Homo sapiens [3] = organism: Homo sapiens; test: as §1, with “JNK1” for “MKK7”, “Q384” for “R419”

Measured: Selectivity ratio

CCCS(=O)(=O)Nc1ccc(F)c(C(=O)c2ccc3[nH]c4ncc(-c5ccc(-c6nnn[nH]6)cc5)cc4c3c2)c1F
> 30: all assays above

CCCS(=O)(=O)Nc1ccc(F)c(C(=O)c2ccc3[nH]c4ncc(-c5ccc(OCC(O)CO)cc5)cc4c3c2)c1F (configuration not stated)
> 30: all assays above

CS(=O)(=O)Nc1ccc(F)c(C(=O)c2ccc3[nH]c4ncc(-c5ccc(S(N)(=O)=O)cc5)cc4c3c2)c1F
> 30: all assays above

CCCS(=O)(=O)Nc1ccc(F)c(C(=O)c2ccc3[nH]c4ncc(Cl)cc4c3c2)c1F
> 30: all assays above

CCCS(=O)(=O)Nc1ccc(F)c(C(=O)c2ccc3[nH]c4ncc(-c5ccc(C(=O)NCC(O)CO)nc5)cc4c3c2)c1F (configuration not stated)
> 30: all assays above

CCCS(=O)(=O)Nc1ccc(F)c(C(=O)c2ccc3[nH]c4ncc(-c5ccc(S(=O)(=O)NCC(O)CO)nc5)cc4c3c2)c1F (configuration not stated)
> 30: all assays above

CCCS(=O)(=O)Nc1cccc(C(=O)c2ccc3[nH]c4ncc(Cl)cc4c3c2)c1F
> 30: all assays above

CCCS(=O)(=O)Nc1ccc(F)c(C(=O)c2ccc3[nH]c4ncc(-c5ccc(C(N)=O)cc5)cc4c3c2)c1F
> 30: all assays above

CS(=O)(=O)Nc1c(F)ccc(C(=O)c2ccc3[nH]c4ncc(Cl)cc4c3c2)c1F
> 30: all assays above

CCCS(=O)(=O)Nc1ccc(F)c(C(=O)c2ccc3[nH]c4ncc(-c5ccc(N)nc5)cc4c3c2)c1F
> 30: all assays above

CCCS(=O)(=O)Nc1ccc(F)c(C(=O)c2ccc3[nH]c4ncc(-c5ccc(S(N)(=O)=O)cc5)cc4c3c2)c1F
> 30: all assays above

CCCS(=O)(=O)Nc1ccc(F)c(C(=O)c2ccc3[nH]c4ncc(-c5ccncc5)cc4c3c2)c1F
> 30: all assays above

CCS(=O)(=O)Nc1ccc(F)c(C(=O)c2ccc3[nH]c4ncc(-c5ccc(S(N)(=O)=O)cc5)cc4c3c2)c1F
> 30: all assays above

CCCS(=O)(=O)Nc1ccc(F)c(C(=O)c2ccc3[nH]c4ncc(-c5ccc(C(=O)O)cc5)cc4c3c2)c1F
> 30: all assays above

Source: ChEMBL document CHEMBL4742403, “Tricyclic protein kinase inhibitors for promoting liver regeneration or reducing or preventing hepatocyte death” (2019)
